Test results published in ChEMBL document CHEMBL1156805, “Development of (S)-N6-(2-(4-(isoquinolin-1-yl)piperazin-1-yl)ethyl)-N6-propyl-4,5,6,7-tetrahydrobenzo[d]-thiazole-2,6-diamine and its analogue as a D3 receptor preferring agonist: potent in vivo activity in Parkinson's disease animal models” (J Med Chem, 2010).

How the values were obtained:
D(2) dopamine receptor [1] = biological target: D(2) dopamine receptor (Rattus norvegicus, UniProt P61169); assay: biochemical
[2] = system: Radical scavenging activity
Description: Antioxidant activity assessed as DPPH radical scavenging activity

D(2) dopamine receptor [3] = biological target: T1, D(2) dopamine receptor (Homo sapiens, UniProt P14416); assay: Agonist activity at human dopamine D2L receptor expressed in CHO cells assessed as stimulation of [35S]GTPgamma binding relative to 1 mM dopamine; assay type: functional, cell-based
T1 sequence (P14416 whole entry): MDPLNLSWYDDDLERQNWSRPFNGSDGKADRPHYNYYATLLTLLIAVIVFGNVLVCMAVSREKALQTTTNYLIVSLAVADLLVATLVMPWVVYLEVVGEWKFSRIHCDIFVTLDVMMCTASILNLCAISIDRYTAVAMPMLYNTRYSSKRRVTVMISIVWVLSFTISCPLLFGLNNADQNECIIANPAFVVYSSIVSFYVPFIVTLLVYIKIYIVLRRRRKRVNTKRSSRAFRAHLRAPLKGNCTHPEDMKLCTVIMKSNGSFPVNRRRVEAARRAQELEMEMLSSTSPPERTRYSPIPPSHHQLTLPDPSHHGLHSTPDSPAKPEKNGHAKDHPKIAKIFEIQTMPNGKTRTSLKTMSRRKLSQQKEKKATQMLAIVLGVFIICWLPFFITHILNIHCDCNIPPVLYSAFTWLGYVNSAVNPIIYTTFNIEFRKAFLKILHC

D(3) dopamine receptor [4] = biological target: T2, D(3) dopamine receptor (Homo sapiens, UniProt P35462); assay: biochemical
T2 sequence (P35462 whole entry): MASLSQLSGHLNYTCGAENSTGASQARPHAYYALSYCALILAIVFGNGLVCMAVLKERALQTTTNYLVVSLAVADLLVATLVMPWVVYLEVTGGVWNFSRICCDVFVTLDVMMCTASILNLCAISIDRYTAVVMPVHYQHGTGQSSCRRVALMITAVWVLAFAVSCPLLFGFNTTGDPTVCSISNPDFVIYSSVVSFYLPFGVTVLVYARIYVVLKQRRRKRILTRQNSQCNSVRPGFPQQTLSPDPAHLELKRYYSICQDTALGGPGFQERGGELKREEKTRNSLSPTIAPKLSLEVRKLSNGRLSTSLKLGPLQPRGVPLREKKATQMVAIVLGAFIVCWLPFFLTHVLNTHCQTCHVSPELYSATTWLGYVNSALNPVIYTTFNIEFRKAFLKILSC

D(2) dopamine receptor [5] = biological target: T1, D(2) dopamine receptor; assay: biochemical
D(3) dopamine receptor [6] = biological target: T3, D(3) dopamine receptor (Rattus norvegicus, UniProt P19020); assay: biochemical
T3 sequence (P19020 whole entry): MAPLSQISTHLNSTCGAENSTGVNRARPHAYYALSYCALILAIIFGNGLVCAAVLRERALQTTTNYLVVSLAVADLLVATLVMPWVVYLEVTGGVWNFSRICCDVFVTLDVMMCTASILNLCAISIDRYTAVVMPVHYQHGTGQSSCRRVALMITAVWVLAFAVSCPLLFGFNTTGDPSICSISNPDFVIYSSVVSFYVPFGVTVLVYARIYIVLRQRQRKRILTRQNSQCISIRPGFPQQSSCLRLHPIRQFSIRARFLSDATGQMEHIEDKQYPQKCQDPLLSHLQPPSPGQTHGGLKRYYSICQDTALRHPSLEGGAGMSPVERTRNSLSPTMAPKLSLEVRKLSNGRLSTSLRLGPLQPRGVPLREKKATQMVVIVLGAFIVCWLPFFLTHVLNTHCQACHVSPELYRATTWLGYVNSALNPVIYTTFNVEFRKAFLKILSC

D(2) dopamine receptor [7] = biological target: T1, D(2) dopamine receptor
D(3) dopamine receptor [8] = biological target: T2, D(3) dopamine receptor
D(3) dopamine receptor [9] = biological target: T3, D(3) dopamine receptor

Chain of D(2) dopamine receptor (Rattus norvegicus, UniProt P61169) (P61169 whole entry): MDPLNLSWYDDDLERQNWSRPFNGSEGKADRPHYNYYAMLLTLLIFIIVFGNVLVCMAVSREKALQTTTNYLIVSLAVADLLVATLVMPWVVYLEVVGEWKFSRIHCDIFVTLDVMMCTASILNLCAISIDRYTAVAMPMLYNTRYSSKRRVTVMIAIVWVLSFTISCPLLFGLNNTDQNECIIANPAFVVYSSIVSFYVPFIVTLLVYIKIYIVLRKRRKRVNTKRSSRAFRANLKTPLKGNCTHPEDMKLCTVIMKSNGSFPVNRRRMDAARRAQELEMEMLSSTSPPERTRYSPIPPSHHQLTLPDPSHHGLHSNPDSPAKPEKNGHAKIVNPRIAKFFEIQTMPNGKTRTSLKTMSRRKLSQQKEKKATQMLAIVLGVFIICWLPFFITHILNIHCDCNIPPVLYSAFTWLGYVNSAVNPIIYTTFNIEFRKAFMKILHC

CCCN(CCN1CCN(c2ccc(-c3ccncc3)cc2)CC1)[C@H]1CCc2nc(N)sc2C1
Ki (D(2) dopamine receptor [1]): 270 nM

CCCN(CCN1CCN(c2cccc3ccccc23)CC1)C1CCc2ccc(O)cc2C1 (stereo not given)
Ki (D(2) dopamine receptor [1]): 13.5 nM

CCCN(CCN1CCN(c2cccc3ncccc23)CC1)[C@H]1CCc2nc(N)sc2C1
IC50 [2]: 39700 nM
Emax (D(2) dopamine receptor [3]): 104%
Ki (D(2) dopamine receptor [1]): 57.7 nM
EC50 (D(3) dopamine receptor [4]): 0.528 nM
EC50 (D(2) dopamine receptor [5]): 13.5 nM

CCCN(CCN1CCN(c2nccc3ccccc23)CC1)[C@H]1CCc2nc(N)sc2C1
IC50 [2]: 45700 nM
Ki (D(2) dopamine receptor [1]): 269 nM
EC50 (D(3) dopamine receptor [4]): 0.52 nM
Ki (D(3) dopamine receptor [6]): 2.23 nM
EC50 (D(2) dopamine receptor [7]): 116 nM

CCCN(CCN1CCN(c2ccc(-c3ccccc3)cc2)CC1)[C@H]1CCc2nc(N)sc2C1
EC50 (D(2) dopamine receptor [7]): 19.9 nM
EC50 (D(3) dopamine receptor [8]): 0.085 nM

CCCN(CCN1CCN(c2cccc3ncccc23)CC1)C1CCc2ccc(O)cc2C1 (stereo not given)
Ki (D(2) dopamine receptor [1]): 5.22 nM

CCCN(CCN1CCN(c2ccnc3ccccc23)CC1)C1CCc2ccc(O)cc2C1 (stereo not given)
Ki (D(2) dopamine receptor [1]): 7.08 nM
Ki (D(3) dopamine receptor [6]): 2.65 nM

CCCN(CCN1CCN(C(=O)c2cc3ccccc3[nH]2)CC1)[C@H]1CCc2c(O)cccc2C1
Ki (D(3) dopamine receptor [9]): 0.57 nM

CCCN(CCN1CCN(c2ccc3ccccc3c2)CC1)C1CCc2ccc(O)cc2C1 (stereo not given)
Ki (D(2) dopamine receptor [1]): 8.85 nM

CCCN(CCN1CCN(c2nccc3ccccc23)CC1)C1CCc2ccc(O)cc2C1 (stereo not given)
Ki (D(2) dopamine receptor [1]): 21.7 nM

CCCN(CCN1CCN(c2ccnc3ccccc23)CC1)[C@H]1CCc2nc(N)sc2C1
Emax (D(2) dopamine receptor [3]): 118%
Ki (D(2) dopamine receptor [1]): 109 nM
EC50 (D(3) dopamine receptor [4]): 0.493 nM
EC50 (D(2) dopamine receptor [5]): 77.2 nM

CCCN(CCC)CCc1cccc2c1CC(=O)N2 [ROPINIROLE]
EC50 (D(2) dopamine receptor [5]): 304 nM
